Like-named read-outs stand apart in the source and are kept apart here.
Assays:
HCT-8/NC(PTX) cells = assay: MTS cytotoxicity (drug tolerance) assay; settings: NC(PTX) cells, after selection by PTX
Procedure: (§1) Host cell drug tolerance to specified inhibitors was evaluated by 3-(4,5-dimethylthiazol-2-yl)-5-(3-carboxymethoxyphenyl)-2-(4-sulfophenyl)-2H-tetrazolium (MTS) assay. WT and transgenic host cells were seeded in 96-well plates (10,000 cells/well) and cultured for 24 h, followed by the addition of specified compounds at serially diluted concentrations and continued culture for 41 h. After 3 washes with serum-free medium, MTS solution (Saint-Bio, Shanghai, China) was added into the plates (20 μL/well) and incubated at 37°C for 2 h. Optical density at 490 nm (OD490) was measured using a Synergy LX multi-mode reader (BioTek, Winooski, VT). Drug tolerance was indicated by half-maximal cytotoxic concentrations (TC50 values) calculated by nonlinear regression using 4PL model. Selectivity index (SI) for each compound was determined by the ratio between TC50 and EC50 values (SI = TC50/EC50).
(§2) Surviving cells were allowed to recover in drug-free medium for 3–5 d to near confluence (round 1). The selection/recovery cycle were repeated once (round 2). […] The resulting cell lines after PTX or NTZ selection were designated as WT(PTX), NC(PTX) and MDR1(PTX), or WT(NTZ), NC(NTZ) and MDR1(NTZ), respectively (Tables 1 and S2).

HCT-8/MDR1(NTZ) cells = assay: MTS cytotoxicity (drug tolerance) assay; settings: for TC50: human, 41 h
Procedure: as §1, §2

HCT-8/WT(PTX) cells = assay: MTS cytotoxicity (drug tolerance) assay; settings: WT(PTX) cells, after selection by PTX
Procedure: as §1, §2

HCT-8/WT cells = assay: MTS cytotoxicity (drug tolerance) assay; settings: for TC50: WT cells, no drug selection, MTS assay
Procedure: as §1

Cryptosporidium parvum = assay: Anti-cryptosporidial efficacy assay (44-h infection/qRT-PCR); settings: for EC50: Cryptosporidium parvum; for On-target rate at EC50 / On-target (Eon) rate at EC50: Eq 2; for Action on parasite target (on-target) conclusion: MDR1-transgenic host cell model; for Eoff, proportion of off-parasite-target effect / Eon, proportion of on-parasite-target effect: Eq 3 and 4
HCT-8/NC(NTZ) cells = assay: MTS cytotoxicity (drug tolerance) assay; settings: NC(NTZ) cells, after selection by NTZ
Procedure: as §1
(§3) Surviving cells were allowed to recover in drug-free medium for 3–5 d to near confluence (round 1). The selection/recovery cycle were repeated once (round 2). […] Finally, all cells were cultured at the final selection concentrations of PTX or NTZ for ≥7 d, followed by culture in drug-free medium for 14 d. At this time point, cells were used for cytotoxicity and efficacy assays or cryopreserved in a liquid nitrogen tank. The resulting cell lines after PTX or NTZ selection were designated as WT(PTX), NC(PTX) and MDR1(PTX), or WT(NTZ), NC(NTZ) and MDR1(NTZ), respectively (Tables 1 and S2).

HCT-8/WT(NTZ) cells = assay: MTS cytotoxicity (drug tolerance) assay; settings: WT(NTZ) cells, after selection by NTZ
Procedure: as §1, §3

HCT-8/NC cells = assay: MTS cytotoxicity (drug tolerance) assay; settings: no drug selection
HCT-8/MDR1 cells = settings: human, 41 h
HCT-8/MDR1(PTX) cells = settings: for TC50: MDR1(PTX) cells, after selection by PTX
Procedure: as §1, §2

HCT-8 cells = assay: MTS cytotoxicity assay with MDR1 inhibitor elacridar, several HCT-8 derived cell lines; settings: 300 nM, NC, MDR1, NC(PTX), NC(NTZ)
Procedure: If the increase of tolerance to a specified inhibitor in host cells was truly mediated by MDR1, specific inhibition of MDR1 would restore the sensitivity of the host cells to the inhibitor (as indicated by TC50). Additionally, inhibition of MDR1 would not affect the anti-cryptosporidial efficacy (EC50) if the drug that acted only on the parasite target, or partially affect the efficacy (EC50) if the drug that also acted on host cell target. This notion was tested using elacridar, a third generation of MDR1 inhibitor [18, 23–25]. […] We then examined the effect of elacridar on the cytotoxicity and anti-cryptosporidial efficacies of the six inhibitors in the range of TC50 or EC50 concentrations.
Host cell drug tolerance to specified inhibitors was evaluated by 3-(4,5-dimethylthiazol-2-yl)-5-(3-carboxymethoxyphenyl)-2-(4-sulfophenyl)-2H-tetrazolium (MTS) assay. […] Optical density at 490 nm (OD490) was measured using a Synergy LX multi-mode reader (BioTek, Winooski, VT). Drug tolerance was indicated by half-maximal cytotoxic concentrations (TC50 values) calculated by nonlinear regression using 4PL model. Selectivity index (SI) for each compound was determined by the ratio between TC50 and EC50 values (SI = TC50/EC50).

MDR1 = system: MDR1; design: method as in PMID 34648615; settings: 300 nM ref 15; cited from earlier work
[1] = MDR1, read-out: Antiparasitic efficacy (EC50), C. parvum cultured in MDR1(PTX) host cells
[2] = read-out: Antiparasitic efficacy (EC50), C. parvum cultured in NC host cells
[3] = read-out: Antiparasitic efficacy (EC50), C. parvum cultured in WT host cells
[4] = at EC10, MDR1(NTZ) vs. NC model
[5] = at EC20, MDR1(NTZ) vs. NC model
[6] = at EC30, MDR1(NTZ) vs. NC model
[7] = at EC40, MDR1(NTZ) vs. NC model
[8] = at EC50, MDR1(NTZ) vs. NC model
[9] = at EC60, MDR1(NTZ) vs. NC model
[10] = at EC70, MDR1(NTZ) vs. NC model
[11] = at EC80, MDR1(NTZ) vs. NC model
[12] = at EC90, MDR1(NTZ) vs. NC model
[13] = at EC10, MDR1(PTX) vs. NC model
[14] = at EC20, MDR1(PTX) vs. NC model
[15] = at EC30, MDR1(PTX) vs. NC model
[16] = at EC40, MDR1(PTX) vs. NC model
[17] = at EC50, MDR1(PTX) vs. NC model
[18] = at EC60, MDR1(PTX) vs. NC model
[19] = at EC70, MDR1(PTX) vs. NC model
[20] = at EC80, MDR1(PTX) vs. NC model
[21] = at EC90, MDR1(PTX) vs. NC model

## CC(=O)Oc1ccccc1C(=O)Nc1ncc([N+](=O)[O-])s1 [Nitazoxanide]
HCT-8/NC(PTX) cells
  TC50: 26.76 µM
HCT-8/MDR1(NTZ) cells; MDR1(NTZ) vs NC cells
  Pct change of TC50 (vs NC): 101.5%
HCT-8/MDR1(NTZ) cells
  TC50: 52.19 µM
HCT-8/WT(PTX) cells
  TC50: 25.37 µM
HCT-8/WT cells
  TC50: 26.75 µM
HCT-8/WT cells; percent inhibition of WT host cell growth at the EC50 concentration, calculated with Eq 5 from k and h
  Calculated cytotoxicity at EC50: 2.73%
Cryptosporidium parvum; MDR1, read-out: Antiparasitic efficacy (EC50), C. parvum cultured in MDR1(NTZ) host cells
  EC50: 1.07 µM
Cryptosporidium parvum; [1]
  EC50: 1.06 µM
Cryptosporidium parvum; [2]
  EC50: 1.11 µM
Cryptosporidium parvum; [3]
  EC50: 1.09 µM
Cryptosporidium parvum; MDR1(NTZ) cell model, Eq 1
  Off-target rate at EC50: -3.6%
Cryptosporidium parvum; MDR1(NTZ) cell model
  On-target rate at EC50: 103.6%
Cryptosporidium parvum; MDR1(NTZ) cell model, listed as NTZ
  On-target rate at EC50: 103.6%
Cryptosporidium parvum
  Action on parasite target (on-target) conclusion: 100% on-target
Cryptosporidium parvum; [4]
  Eoff, proportion of off-parasite-target effect: -7.90%
  Eon, proportion of on-parasite-target effect: 107.90%
Cryptosporidium parvum; [5]
  Eoff, proportion of off-parasite-target effect: -6.10%
  Eon, proportion of on-parasite-target effect: 106.10%
Cryptosporidium parvum; [6]
  Eoff, proportion of off-parasite-target effect: -5.10%
  Eon, proportion of on-parasite-target effect: 105.10%
Cryptosporidium parvum; [7]
  Eoff, proportion of off-parasite-target effect: -4.30%
  Eon, proportion of on-parasite-target effect: 104.30%
Cryptosporidium parvum; [8]
  Eoff, proportion of off-parasite-target effect: −3.6%
  Eon, proportion of on-parasite-target effect: 103.6%
Cryptosporidium parvum; [9]
  Eoff, proportion of off-parasite-target effect: -2.90%
  Eon, proportion of on-parasite-target effect: 102.90%
Cryptosporidium parvum; [10]
  Eoff, proportion of off-parasite-target effect: -2.30%
  Eon, proportion of on-parasite-target effect: 102.30%
Cryptosporidium parvum; [11]
  Eoff, proportion of off-parasite-target effect: -1.50%
  Eon, proportion of on-parasite-target effect: 101.50%
Cryptosporidium parvum; [12]
  Eoff, proportion of off-parasite-target effect: -0.50%
  Eon, proportion of on-parasite-target effect: 100.50%
HCT-8/NC(NTZ) cells
  TC50: 39.09 µM
HCT-8/WT(NTZ) cells
  TC50: 38.70 µM
HCT-8/NC cells
  TC50: 25.90 µM
HCT-8/MDR1 cells
  TC50: 25.28 µM
HCT-8/MDR1(PTX) cells
  TC50: 25.59 µM

## CC[C@]1(O)C[C@H]2CN(CCc3c([nH]c4ccccc34)[C@@](C(=O)OC)(c3cc4c(cc3OC)N(C=O)[C@H]3[C@@](O)(C(=O)OC)[C@H](OC(C)=O)[C@]5(CC)C=CCN6CC[C@]43[C@@H]65)C2)C1 [Vincristine, Vincristine sulphate]
HCT-8/NC(PTX) cells
  TC50: 7.29 µM
HCT-8/MDR1(NTZ) cells
  TC50: 12.38 µM
HCT-8/WT(PTX) cells
  TC50: 6.96 µM
HCT-8/WT cells
  TC50: 6.72 µM
Cryptosporidium parvum; [1]
  EC50: 2.77 µM
Cryptosporidium parvum; [2]
  EC50: 1.58 µM
Cryptosporidium parvum; [3]
  EC50: 1.64 µM
Cryptosporidium parvum; MDR1(PTX) cell model
  On-target (Eon) rate at EC50: 62.5%
Cryptosporidium parvum; MDR1(PTX) cell model, listed as VCT
  On-target (Eon) rate at EC50: 62.5%
Cryptosporidium parvum; MDR1(PTX) cell model, from Pct changes of EC50 and TC50 (Eq 1)
  Off-target (Eoff) rate at EC50: 37.5%
Cryptosporidium parvum
  Action on parasite target (on-target) conclusion: partially on-target
Cryptosporidium parvum; [13]
  Eoff, proportion of off-parasite-target effect: 38.10%
  Eon, proportion of on-parasite-target effect: 61.90%
Cryptosporidium parvum; at EC10, MDR1(PTX) vs. NC model, listed as VCT
  Eon, proportion of on-parasite-target effect: 61.9%
Cryptosporidium parvum; [14]
  Eoff, proportion of off-parasite-target effect: 38.00%
  Eon, proportion of on-parasite-target effect: 62.00%
Cryptosporidium parvum; [15]
  Eoff, proportion of off-parasite-target effect: 37.90%
  Eon, proportion of on-parasite-target effect: 62.10%
Cryptosporidium parvum; [16]
  Eoff, proportion of off-parasite-target effect: 37.80%
  Eon, proportion of on-parasite-target effect: 62.20%
Cryptosporidium parvum; [17]
  Eoff, proportion of off-parasite-target effect: 37.7%
  Eon, proportion of on-parasite-target effect: 62.3%
Cryptosporidium parvum; [18]
  Eoff, proportion of off-parasite-target effect: 37.60%
  Eon, proportion of on-parasite-target effect: 62.40%
Cryptosporidium parvum; [19]
  Eoff, proportion of off-parasite-target effect: 37.50%
  Eon, proportion of on-parasite-target effect: 62.50%
Cryptosporidium parvum; [20]
  Eoff, proportion of off-parasite-target effect: 37.30%
  Eon, proportion of on-parasite-target effect: 62.70%
Cryptosporidium parvum; [21]
  Eoff, proportion of off-parasite-target effect: 37.10%
  Eon, proportion of on-parasite-target effect: 62.90%
Cryptosporidium parvum; at EC90, MDR1(PTX) vs. NC model, listed as VCT
  Eon, proportion of on-parasite-target effect: 62.9%
HCT-8/NC(NTZ) cells
  TC50: 6.87 µM
HCT-8/WT(NTZ) cells
  TC50: 7.04 µM
HCT-8/NC cells
  TC50: 7.15 µM
HCT-8/MDR1 cells
  TC50: 12.61 µM
HCT-8/MDR1(PTX) cells
  TC50: 21.51 µM
HCT-8/MDR1(PTX) cells; MDR1(PTX) vs NC cells
  Pct change of TC50 (vs NC): 200.8%

## COc1cc2c(cc1OC)CN(CCc1ccc(NC(=O)c3cccc4c(=O)c5cccc(OC)c5[nH]c34)cc1)CC2 [elacridar]
HCT-8 cells
  Effect on growth of host cells: no or little effect
MDR1
  Inhibition on the activity of MDR1: strong inhibition
Cryptosporidium parvum; 300 nM, cultured with NC, MDR1(PTX) and MDR1(NTZ) cells
  Effect on growth of C. parvum: no or little effect

— article PMC10079235 (PLOS Neglected Tropical Diseases, 2023)
